The text below walks through data of patent US12071430B2 (The Johns Hopkins University, priority 2011, dated 2024).

Broadly, the solubility is how much of the substance goes into solution per volume. The term IC50 denotes the concentration at which inhibition is half-maximal.

The subject of data set [1] is HUVEC. The data set is described as follows: HUVEC proliferation, [3H]-thymidine incorporation assay. In kind it is cell-based, human. The note with it: HUVEC. The method, then:
(§1) The inhibitory effects of the new analogs on HUVEC proliferation were measured using a [3H]-thymidine incorporation assay. The log P values, used as an indicator of lipophilicity, were calculated using ALOGPS2.1 software. Aqueous solubility is a key physiochemical property relevant for oral absorption. We determined the solubility of each analog in 0.001 N HCl (pH=3), which represents the acidic human gastric fluid.
HUVEC Culture and Proliferation Assays. HUVEC (Lonza) were grown in EGM-2 bullet kit media (Lonza) and used at passage eight or lower. The H thymidine incorporation assays were conducted as previously described. Briefly, cells were seeded on 96-well plate at a concentration of 2000 cells/well and allowed to settle overnight. Drugs were added to each well in triplicate. After 24 hours, cells were treated with 1 μCi of [3H] thymidine for 6 h. Then cells were harvested and transferred to filtermats. The scintillation were counted and IC50 were determined using Prism software (version 6.0).

A short description of data set [2]: Aqueous solubility test in 0.001N HCl. Type of data set: physicochemical. The note with it: 0.001 N HCl aqueous buffer, simulated gastric fluid, kinetic from dmso stock; thermodynamic solubility, HPLC, pH=3, room temperature, 24 h. On the procedure: as §1
Aqueous solubility test. In a 1.5 mL microcentrifuge tube, 2 ul of 10 mM compound stock solution in DMSO was added to 1 mL 0.001N HCl aqueous buffer to obtain saturated solution. The resulting mixture was shaken under 600 rpm for 24 h at room temperature. Then the tube was centrifuged at 13,000 rpm for 5 min to remove the undissolved compound. 100 ul of the supernatant was injected to an Agilent 6120 LC/MS for analysis. The mass spectrometry data was collected under SIM/Scan mode. The ions of compound Exact Mass+1 and Exact Mass+23 were monitored as selected ion monitoring (SIM) for peak area integration. Solubility was calculated according to the concentration standard curve of each compound.

In data set [3] the test system is HUVEC. The data set is described as follows: HUVEC proliferation, [3H]-thymidine incorporation assay. The note with it: Homo sapiens, mean ± SD, three independent experiments, read-out: HUVEC inhibition IC50. In kind it is cell-based. (In general: Uptake of a labelled nucleoside into DNA is a usual measure of proliferation.)
In the next data set the target is T1, CYP3A4 (Homo sapiens, UniProt P08684).
T1 construct: purchased ThermoFisher P2857; host or cells: baculosomes (insect-cell microsomes, own knowledge)
T1 sequence (P08684 whole entry): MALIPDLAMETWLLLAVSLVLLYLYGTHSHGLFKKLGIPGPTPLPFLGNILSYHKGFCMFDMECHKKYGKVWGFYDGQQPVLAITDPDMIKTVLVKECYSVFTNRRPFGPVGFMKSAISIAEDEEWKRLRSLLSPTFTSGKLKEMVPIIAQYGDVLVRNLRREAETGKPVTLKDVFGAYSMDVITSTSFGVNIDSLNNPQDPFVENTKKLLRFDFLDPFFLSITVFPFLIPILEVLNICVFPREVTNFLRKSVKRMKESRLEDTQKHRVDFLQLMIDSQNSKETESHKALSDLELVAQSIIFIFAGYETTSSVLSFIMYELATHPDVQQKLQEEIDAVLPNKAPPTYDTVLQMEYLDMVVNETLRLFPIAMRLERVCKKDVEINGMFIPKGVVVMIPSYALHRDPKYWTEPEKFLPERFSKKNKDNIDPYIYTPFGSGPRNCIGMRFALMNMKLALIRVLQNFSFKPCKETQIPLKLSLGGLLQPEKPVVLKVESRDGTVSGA
The data set is described as follows: CYP3A4 enzyme assay (Vivid CYP3A4 Green Screening Kit). Type of data set: in vitro ADME. The note with it: dose-response, FIG. 2 / FIG. 6; read-out: IC50 for CYP3A4 inhibition. On the procedure:
And CYP3A4 inhibition was initially determined using a cell-free fluorescence-based assay at a final concentration of 1 μM (Table 2).
CYP3A4 enzyme assay. CYP3A4 enzyme activity was tested using Vivid™ CYP3A4 Green Screening Kit (ThermoFisher, #P2857) using the manufacturer's protocol. Briefly, CYP3A4 baculosomes and drugs were incubated 10 min at 37° C. Then Vivid® Substrates were added and the fluorescence (ex/em:485/520) were read every 1 min for 60 minute.

The test system of the next data set is HUVECs. The data set is described as follows: Filipin staining of intracellular cholesterol (NPC phenotype). Type of data set: cell-based, human. The note with it: HUVEC, 0.2 μM, 24 h. The source says:
Nieman-Pick C phenotype and mTOR inhibition. […] We thus determined whether compound 48 shared the same mechanism with itraconazole. The intracellular cholesterol was detected using the cholesterol-binding fluorescent dye filipin. […] It is known that AMPK activation leads to mTOR inhibition.
Inhibition of NPC1. NPC1 plays an essential role in cholesterol export from the endolysosome. […] At a close view (FIG. 9B), the linear pyridinyl-piperizin-1-yl-phenyl core of compound 14 nestled into the hydrophobic channel created by the transmembrane helix. The isobutyl tail faced toward the open entrance of this channel. The tetrazole moiety pointed into the closed end of the pocket and interacted with the hydroxyl group of Tyr1225 via hydrogen bonding.
Filipin staining. 2000 HUVECs were plated in chamber slide with 1 ml media and allowed to settle overnight. […] The the cells were fixed with 4% paraformaldehyde for 15 min. After washed, cells were incubated with 500 ul 50 ug/ml filipin solution for 1 hour in the dark. Then the cells were washed twice with PBS, mounted and covered with coverslip. The images were taken using confocal microscope under 360/460 nm.

Each structure is given as a SMILES string. ≈ marks a conversion by molar mass, not a printed value. A value given as a limit tells only on which side of the number the result lay.

For `CCC(C)n1ncn(-c2ccc(N3CCN(c4ccc(OC[C@@H]5CO[C@@](Cn6ccnc6)(c6ccc(Cl)cc6Cl)O5)cc4)CC3)c(F)c2)c1=O` (stereo partly drawn) [Compound 1, 4-(4-(4-(4-(((2S,4R)-2-((1H-imidazol-1-yl)methyl)-2-(2,4-dichlorophenyl)-1,3-dioxolan-4-yl)methoxy)phenyl)piperazin-1-yl)-3-fluorophenyl)-2-(sec-butyl)-2,4-dihydro-3H-1,2,4-triazol-3-one], the “HUVEC proliferation / anti-angiogenic potency compared to itraconazole, in words” value in the data set with HUVEC [1] was “increased activities”. The same compound returned a solubility at 24 h in data set [2] of 17.2 µg/mL (≈ 23.7 µM). Besides, the IC50 in the data set with HUVEC [3] came to 70.1 ± 15.4 nM.
With `CCC(C)n1ncn(-c2ccc(N3CCN(c4ccc(OC[C@@H]5CO[C@@](Cn6ccnc6)(c6ccc(Cl)cc6Cl)O5)cn4)CC3)cc2)c1=O` (stereo partly drawn) [Compound 4, 4-(4-(4-(5-(((2S,4R)-2-((1H-imidazol-1-yl)methyl)-2-(2,4-dichlorophenyl)-1,3-dioxolan-4-yl)methoxy)pyridin-2-yl)piperazin-1-yl)phenyl)-2-(sec-butyl)-2,4-dihydro-3H-1,2,4-triazol-3-one], the IC50 on CYP3A4 amounted to 2600 nM; with HUVEC [3], 69.1 ± 7 nM. Besides, in the data set with HUVEC [1], the “HUVEC proliferation / anti-angiogenic potency compared to itraconazole, in words” value was “increased activities”. In data set [2], the solubility at 24 h was 2.94 µg/mL (≈ 4.16 µM).
Regarding `CCC(C)n1ncn(-c2ccc(N3CCN(c4ccc(OC[C@@H]5CO[C@@](Cn6ccnc6)(c6ccc(Cl)cc6Cl)O5)cn4)CC3)c(F)c2)c1=O` (stereo partly drawn) [Compound 5, 4-(4-(4-(5-(((2S,4R)-2-((1H-imidazol-1-yl)methyl)-2-(2,4-dichlorophenyl)-1,3-dioxolan-4-yl)methoxy)pyridin-2-yl)piperazin-1-yl)-3-fluorophenyl)-2-(sec-butyl)-2,4-dihydro-3H-1,2,4-triazol-3-one], in the data set on HUVEC [1], the “HUVEC proliferation / anti-angiogenic potency compared to itraconazole, in words” value was “increased activities”. For the same compound, the solubility at 24 h in data set [2] is 125 µg/mL (≈ 173 µM). Also, the IC50 in the data set on HUVEC [3] came to 68 ± 15.5 nM.
For `CCC(C)n1ncn(-c2ccc(N3CCN(c4ccc(OC[C@@H]5CO[C@@](Cn6ccnc6)(c6ccc(Cl)cc6Cl)O5)cc4)CC3)nc2)c1=O` (stereo partly drawn) [Compound 6, 4-(6-(4-(4-(((2S,4R)-2-((1H-imidazol-1-yl)methyl)-2-(2,4-dichlorophenyl)-1,3-dioxolan-4-yl)methoxy)phenyl)piperazin-1-yl)pyridin-3-yl)-2-(sec-butyl)-2,4-dihydro-3H-1,2,4-triazol-3-one], the “HUVEC proliferation / anti-angiogenic potency compared to itraconazole, in words” value in the data set with HUVEC [1] is listed as “increased activities”. For the same compound, the solubility at 24 h in data set [2] was 7.99 µg/mL (≈ 11.3 µM). The IC50 in the data set on HUVEC [3] was 98.5 ± 36.3 nM.
As to `CCC(C)n1ncn(-c2ccc(N3CCN(c4ccc(OC[C@@H]5CO[C@@](Cn6cnnn6)(c6ccc(Cl)cc6Cl)O5)cc4)CC3)c(F)c2)c1=O` (stereo partly drawn) [Compound 8, 4-(4-(4-(4-(((2S,4R)-2-((1H-tetrazol-1-yl)methyl)-2-(2,4-dichlorophenyl)-1,3-dioxolan-4-yl)methoxy)phenyl)piperazin-1-yl)-3-fluorophenyl)-2-(sec-butyl)-2,4-dihydro-3H-1,2,4-triazol-3-one], the “induction of NPC phenotype (cholesterol accumulation)” value with HUVECs was “massive build-up of cholesterol”. Moreover, the IC50 at CYP3A4 is more than 100000 nM; in the data set with HUVEC [3], 153 ± 32.7 nM. In data set [2], this compound registered a solubility at 24 h of 0.0528 µg/mL (≈ 0.0729 µM).
Turning to `CCC(C)n1ncn(-c2ccc(N3CCN(c4ccc(OC[C@@H]5CO[C@@](Cn6cnnn6)(c6ccc(Cl)cc6Cl)O5)cn4)CC3)c(F)c2)c1=O` (stereo partly drawn) [Compound 15, 4-(4-(4-(5-(((2S,4R)-2-((1H-tetrazol-1-yl)methyl)-2-(2,4-dichlorophenyl)-1,3-dioxolan-4-yl)methoxy)pyridin-2-yl)piperazin-1-yl)-3-fluorophenyl)-2-(sec-butyl)-2,4-dihydro-3H-1,2,4-triazol-3-one], in the data set with HUVECs, the “induction of NPC phenotype (cholesterol accumulation)” value is “massive build-up of cholesterol”. The IC50 at CYP3A4 is 37000 nM; in the data set on HUVEC [3], 108 ± 8.6 nM. In addition, the solubility at 24 h in data set [2] is 0.708 µg/mL (≈ 0.975 µM).
In the case of `CCC(C)n1ncn(-c2ccc(N3CCN(c4ccc(OC[C@@H]5CO[C@@](Cn6cncn6)(c6ccc(Cl)cc6Cl)O5)cn4)CC3)cc2)c1=O` (stereo partly drawn) [Compound 101, 4-(4-(4-(5-(((2S,4R)-2-((1H-1,2,4-triazol-1-yl)methyl)-2-(2,4-dichlorophenyl)-1,3-dioxolan-4-yl)methoxy)pyridin-2-yl)piperazin-1-yl)phenyl)-2-(sec-butyl)-2,4-dihydro-3H-1,2,4-triazol-3-one], the results for the IC50 on CYP3A4 and in the data set on HUVEC [3] were 3400 nM and 380 ± 50.8 nM, respectively. The same compound came in with a solubility at 24 h in data set [2] of 0.114 µg/mL (≈ 0.161 µM).
Turning to `CCC(C)n1ncn(-c2ccc(N3CCN(c4ccc(OC[C@@H]5CO[C@@](Cn6cncn6)(c6ccc(Cl)cc6Cl)O5)cc4)CC3)c(F)c2)c1=O` (stereo partly drawn) [Compound 104, 4-(4-(4-(4-(((2S,4R)-2-((1H-1,2,4-triazol-1-yl)methyl)-2-(2,4-dichlorophenyl)-1,3-dioxolan-4-yl)methoxy)phenyl)piperazin-1-yl)-3-fluorophenyl)-2-(sec-butyl)-2,4-dihydro-3H-1,2,4-triazol-3-one], the solubility at 24 h in data set [2] is 0.0291 µg/mL (≈ 0.0402 µM). In the data set with HUVEC [3], the IC50 stood at 128 ± 59.7 nM.
Take `CCC(C)n1ncn(-c2ccc(N3CCN(c4ccc(OC[C@@H]5CO[C@@](Cn6cncn6)(c6ccc(Cl)cc6Cl)O5)nc4)CC3)c(F)c2)c1=O` (stereo partly drawn) [Compound 105, 4-(4-(4-(6-(((2S,4R)-2-((1H-1,2,4-triazol-1-yl)methyl)-2-(2,4-dichlorophenyl)-1,3-dioxolan-4-yl)methoxy)pyridin-3-yl)piperazin-1-yl)-3-fluorophenyl)-2-(sec-butyl)-2,4-dihydro-3H-1,2,4-triazol-3-one]: in data set [2], the solubility at 24 h was 0.255 µg/mL (≈ 0.352 µM). Also, in the data set with HUVEC [3], the IC50 is 446 ± 38.3 nM.
As for `CCC(C)n1ncn(-c2ccc(N3CCN(c4ccc(OC[C@@H]5CO[C@@](Cn6cncn6)(c6ccc(Cl)cc6Cl)O5)cn4)CC3)c(F)c2)c1=O` (stereo partly drawn) [Compound 106, 4-(4-(4-(5-(((2S,4R)-2-((1H-1,2,4-triazol-1-yl)methyl)-2-(2,4-dichlorophenyl)-1,3-dioxolan-4-yl)methoxy)pyridin-2-yl)piperazin-1-yl)-3-fluorophenyl)-2-(sec-butyl)-2,4-dihydro-3H-1,2,4-triazol-3-one], the solubility at 24 h in data set [2] is 0.848 µg/mL (≈ 1.17 µM). For the same compound, the IC50 in the data set on HUVEC [3] came to 173 ± 27.6 nM.
